Experiments:
MCF7-vector = experiment: Orthotopic nude mouse model, MCF7-vector; type: in vivo, nude mice; conditions: mammary fat pad, daily subcutaneous injection in peanut oil
Procedure: (§1) Orthotopic mouse model—The cell lines mixed with Matrigel (BD Biosciences) at the ratio of 1:1 were inoculated into the abdominal mammary fat pad of the 5 to 6 week old female nude mice. When the tumor were palpable, the mice were randomized into treatment and control groups where treatment groups received daily subcutaneous injection of tamoxifen (Sigma) dissolved in peanut oil (Sigma) and the control groups received subcutaneous injection of the solvent only. Tumor sizes were measured by caliper and tumor volume was calculated as (length*width*width)/2. Tumor growth rate was expressed as the % of tumor volume change calculated as the tumor volume measured at the indicated time point normalized against the tumor volume at day 0*100%. This protocol has been reviewed and approved by Committee on the Use of Live Animals in Teaching and Research (CULATR), the University of Hong Kong (CULATR No.: 3259-14)
(§2) We further validated the effect of BQ323636.1 overexpression in conferring tamoxifen resistance using a nude mouse model. […] Tumor sizes were measured by caliper and tumor volume was calculated as (length*width*width)/2. Tumor growth rate was expressed as the % of tumor volume change calculated as the tumor volume measured at the indicated time point normalized against the tumor volume at day 0*100%. […]

[1] = test system: ZR75-BQ323636.1 and MCF7-BQ323636.1; experiment: MTT assay, tamoxifen response of BQ323636.1 overexpressing cell lines; type: cell-based, Human; conditions: BQ323636.1 overexpression versus empty vector cell lines
Procedure: Cell lines—Human breast cancer cell lines MCF7 and ZR-75-1 were purchased from American Type Culture Collection and were re-authenticated by short tandem repeat profiling (Zhang, Gong et al. 2013). MCF7 was cultured in Dulbecco's Modified Eagle's Medium supplemented with 10% FBS and 1% penicillin/streptomycin and ZR-75-1 was cultured in Improved Minimum Essential Medium (IMEM) supplemented with 5% FBS and 1% penicillin/streptomycin. LCC2 and AK-47 are the two tamoxifen resistant cell lines derived from MCF7 and ZR-75-1, respectively and were kindly provided by Dr. Robert Clarke (Georgetown University Medical School, Washington, D.C.) (Wong, Dai et al. 2006) and have been used in our previous study (Zhang, Gong et al. 2013). LCC2 and AK-47 were both cultured in IMEM supplemented with 5% charcoal-stripped FBS and 1% penicillin/streptomycin. All the cell lines used in this study have been passaged and kept fewer than 6 months after the re-authentication or thawing. […]
MTT assay—Cells were seeded at a density of 6×10^3 cells/well. […] Extinction of the samples was measured by the Infinite 200 microtiter plate reader (Tecan) at 570 nm with a reference wavelength at 750 nm. Background MTT readings were subtracted from the samples. […]

ZR75-BQ323636.1 = experiment: Orthotopic nude mouse model, ZR75-BQ323636.1; type: in vivo, nude mice; conditions: ZR75-BQ323636.1, mammary fat pad, daily subcutaneous injection in peanut oil
Procedure: as §1, §2

ZR75-vector = experiment: Orthotopic nude mouse model, ZR75-vector; type: in vivo, nude mice; conditions: mammary fat pad, daily subcutaneous injection in peanut oil
Procedure: as §1, §2

MCF7-BQ323636.1 = experiment: Orthotopic nude mouse model, MCF7-BQ323636.1; type: in vivo, nude mice; conditions: MCF7-BQ323636.1, mammary fat pad, daily subcutaneous injection in peanut oil
Procedure: as §1, §2

## CC/C(=C(\c1ccccc1)c1ccc(OCCN(C)C)cc1)c1ccccc1 [tamoxifen]
MCF7-vector
  tumor growth versus solvent control group: significantly reduced tumor growth
[1]
  tamoxifen resistance in MTT assay: induced the tamoxifen resistance
ZR75-BQ323636.1
  tumor growth versus solvent control group: no change of tumor growth
ZR75-vector
  tumor growth versus solvent control group: significantly reduced tumor growth
MCF7-BQ323636.1
  tumor growth versus solvent control group: no change of tumor growth
